Data: US20260103471A1, “CYCLIC UREA THIAZOLYL COMPOUNDS FOR TREATMENT OF HSV” (Assembly Biosciences, Inc., priority 2022, published 2026)

Tested on: HSV-2 G strain
Assay: HSV-2 Antiviral Assay (Vero cells, cell viability)
Assay type: cell-based
Settings: Vero cells, 160 TCID50 HSV-2 G strain, 5 days, cell viability
Procedure, shortened: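 Antiviral readout is survival of infected Vero cells: after 5 days at 37 °C with 160 TCID50 HSV-2 G strain plus serially diluted compound (8 points, 3-fold, 0.5% DMSO), WST-8 was added for 3 h and absorbance measured at 460/620 nm. Cells seeded at 1.0×10^4 per well.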

[1] = Human alphaherpesvirus 2, Vero, 120 h

| Compound | EC50 [1] | EC50 |
| --- | --- | --- |
| Cc1nc(N2C[C@H](C(C)(C)F)CN(c3ccc(-c4cc(F)ccc4F)cc3)C2=O)sc1S(N)(=O)=O (single isomer, unassigned) [Compound 352] | < 100 nM |  |
| Cc1nc(N2C[C@H](O)CN(c3ccc(-c4cc(F)ccc4F)cc3)C2=O)sc1S(N)(=O)=O (single isomer, unassigned) [Compound 354] | < 100 nM |  |
| Cc1nc(N2CC(C(F)(F)F)CN(c3ccc(-c4cc(F)ccc4F)cc3)C2=O)sc1S(N)(=O)=O (stereo not drawn) [Compound 368] | < 100 nM |  |
| Cc1nc(N2CCC(C)N(c3ccc(-c4cc(F)ccc4F)cc3)C2=O)sc1S(N)(=O)=O (stereo not drawn) [Compound 332] | < 100 nM |  |
| Cc1nc(N2C[C@H](C)CN(c3ccc(-c4ccccc4F)cc3)C2=O)sc1S(N)(=O)=O [Compound 324] |  | < 100 nM |
| CO[C@@H]1CN(c2ccc(-c3cc(F)ccc3F)cc2)C(=O)N(c2nc(C)c(S(N)(=O)=O)s2)C1 (single isomer, unassigned) [Compound 358] | 1000 to 5000 nM |  |
| Cc1nc(N2CCCN(c3ccc(-c4cccc5c4OCCO5)cc3)C2=O)sc1S(N)(=O)=O [Compound 249] | < 100 nM |  |
| Cc1nc(N2CCCN(c3ccc(-c4cccn5nncc45)cc3)C2=O)sc1S(N)(=O)=O [Compound 263] | 100 to 1000 nM |  |
| Cc1nc(N2CCCN(c3ccc(-c4cc(F)cc(C(F)F)c4F)cc3)C2=O)sc1S(N)(=O)=O [Compound 217] | < 100 nM |  |
| Cc1nc(N2CCCN(c3ccc(-c4ccc(F)c(F)c4)cc3)C2=O)sc1S(N)(=O)=O [Compound 190] | 100 to 1000 nM |  |
| Cc1nc(N2CCCN(c3ccc(-c4ccc(C#N)c5c4ccn5C)cc3)C2=O)sc1S(N)(=O)=O [Compound 300] | 100 to 1000 nM |  |
| Cc1nc(N2C[C@H](C(F)F)CN(c3ccc(-c4cc(F)ccc4F)cc3)C2=O)sc1S(N)(=O)=O (single isomer, unassigned) [Compound 350] | < 100 nM |  |
| Cc1nc(N2CCCN(c3ccc(-c4nccc5c4cnn5C)cc3)C2=O)sc1S(N)(=O)=O [Compound 261] | 100 to 1000 nM |  |
| Cc1nc(N2CCCN(c3ccc(-c4cccc5cnsc45)cc3)C2=O)sc1S(N)(=O)=O [Compound 258] | < 100 nM |  |
| Cc1nc(N2CCCN(c3ccc(-c4cc(Cl)cc(Cl)c4F)cc3)C2=O)sc1S(N)(=O)=O [Compound 213] | < 100 nM |  |
| Cc1nc(N2CC(C(=O)O)CN(c3ccc(-c4cc(F)ccc4F)cc3)C2=O)sc1S(N)(=O)=O (stereo not drawn) [Compound 380] | 1000 to 5000 nM |  |
| Cc1nc(N2CCCN(c3ccc(-c4cc(C(C)(C)C)ccc4F)cc3)C2=O)sc1S(N)(=O)=O [Compound 204] | 1000 to 5000 nM |  |
| COc1cc(-c2ccc(N3CCCN(c4nc(C)c(S(N)(=O)=O)s4)C3=O)cc2)c2scnc2c1 [Compound 252] | < 100 nM |  |
| COc1c(F)cc(F)cc1-c1ccc(N2CCCN(c3nc(C(F)(F)F)c(S(N)(=O)=O)s3)C2=O)cc1 [Compound 437] | < 100 nM |  |
| Cc1nc(N2C[C@@H](F)CN(c3ccc(-c4cc(F)ccc4F)cc3)C2=O)sc1S(N)(=O)=O (single isomer, unassigned) [Compound 365] | < 100 nM |  |
| COc1c(F)cc(F)cc1-c1ccc(N2CC(F)CN(c3nc(C)c(S(N)(=O)=O)s3)C2=O)cc1 (stereo not drawn) [Compound 366] | < 100 nM |  |
| Cc1nc(N2CC(C)CN(c3ccc(-c4ccccc4Cl)cc3)C2=O)sc1S(N)(=O)=O (stereo not drawn) [Compound 321] | < 100 nM |  |

| Compound | EC50 [1] | EC50 |
| --- | --- | --- |
| Cc1nc(N2CC[C@H](C)N(c3ccc(-c4cc(F)ccc4F)cc3)C2=O)sc1S(N)(=O)=O (single isomer, unassigned) [Compound 334] | < 100 nM |  |
| Cc1nc(N2CCCN(c3ccc(-c4nccn5cncc45)cc3)C2=O)sc1S(N)(=O)=O [Compound 262] | 1000 to 5000 nM |  |
| Cc1cc(F)cc(-c2ccc(N3CCCN(c4nc(C)c(S(N)(=O)=O)s4)C3=O)cc2)n1 [Compound 237] | < 100 nM |  |
| Cc1nc(N2CCCN(c3ccc(-c4nccc5ncsc45)cc3)C2=O)sc1S(N)(=O)=O [Compound 260] | < 100 nM |  |
| Cc1nc(N2CCCN(c3ccc(-c4ccccc4C4COC4)cc3)C2=O)sc1S(N)(=O)=O [Compound 197] | 1000 to 5000 nM |  |
| Cc1nc(N2CCCN(c3ccc(-c4cc(F)ccc4F)cc3)C2=O)sc1S(=O)(=O)NCC(C)CO (stereo not drawn) [Compound 394] | < 100 nM |  |
| Cc1nc(N2CCCCN(c3ccc(-c4cc(F)ccc4F)cc3)C2=O)sc1[S@@](C)(=N)=O (single isomer, unassigned) [Compound 426] | < 100 nM |  |
| Cc1nc(N2CC3(COC3)CN(c3ccc(-c4cc(F)cc5nsnc45)cc3)C2=O)sc1S(N)(=O)=O [Compound 340] | < 100 nM |  |
| Cc1nc(N2CCCN(c3ccc(-c4ccccc4F)cc3)C2=O)sc1S(=O)(=O)C(F)F [Compound 412, 1-(5-((difluoromethyl)sulfonyl)-4-methylthiazol-2-yl)-3-(2′-fluoro-[1,1′-biphenyl]-4-yl)tetrahydropyrimidin-2(1H)-one] | 100 to 1000 nM |  |
| Cc1nc(N2CC3(CC3)CN(c3ccc(-c4ncccc4F)cc3)C2=O)sc1S(N)(=O)=O [Compound 112] | < 100 nM |  |
| Cc1nc(N2CCCN(c3ccc(-c4cc(C(F)(F)F)cc5nsnc45)cc3)C2=O)sc1S(N)(=O)=O [Compound 244] | < 100 nM |  |
| COc1ccc(F)cc1-c1ccc(N2CC3(COC3)CN(c3nc(C)c(S(C)(=O)=O)s3)C2=O)cc1 [Compound 435] | < 100 nM |  |
| Cc1nc(N2CCCN(c3ccc(-c4ncccc4C(F)(F)F)cc3)C2=O)sc1S(N)(=O)=O [Compound 232] | 100 to 1000 nM |  |
| Cc1nc(N2C[C@H](C(N)=O)CN(c3ccc(-c4cc(F)ccc4F)cc3)C2=O)sc1S(N)(=O)=O (single isomer, unassigned) [Compound 382] | 100 to 1000 nM |  |
| Cc1cc(Cl)c(F)c(-c2ccc(N3CCCN(c4nc(C)c(S(N)(=O)=O)s4)C3=O)cc2)n1 [Compound 236] | < 100 nM |  |
| Cc1nc(N2CCCN(c3ccc(-c4cccc(C5CCC5)c4)cc3)C2=O)sc1S(N)(=O)=O [Compound 199] | 100 to 1000 nM |  |
| Cc1nc(N2CCCN(c3ccc(-c4cccc5ccnn45)cc3)C2=O)sc1S(N)(=O)=O [Compound 64] |  | 100 to 1000 nM |
| Cc1nc(N2C[C@H](C)CN(c3ccc(-c4cc(F)ccc4F)cc3)C2=O)sc1S(N)(=O)=O (single isomer, unassigned) [Compound 319] | < 100 nM |  |
| Cc1nc(N2CCCN(c3ccc(-c4cc(C(F)(F)F)ccn4)cc3)C2=O)sc1S(N)(=O)=O [Compound 240] | 100 to 1000 nM |  |
| COCCCNS(=O)(=O)c1sc(N2CCCN(c3ccc(-c4cc(F)cc5nsnc45)cc3)C2=O)nc1C [Compound 419] | < 100 nM |  |
| Cc1nc(N2CCCN(c3ccc(-c4cc(F)ccc4F)cc3)C2=O)sc1S(=O)(=O)NCC(F)(F)CO [Compound 392] | < 100 nM |  |
| Cc1nc(N2C[C@@H](C(N)=O)CN(c3ccc(-c4cc(F)ccc4F)cc3)C2=O)sc1S(N)(=O)=O (single isomer, unassigned) [Compound 383] | 100 to 1000 nM |  |

| Compound | EC50 [1] | EC50 |
| --- | --- | --- |
| Cc1nc(N2CCCN(c3ccc(-c4cc(F)cc5cc(C(C)(C)O)sc45)cc3)C2=O)sc1S(N)(=O)=O [Compound 281] | 100 to 1000 nM |  |
| Cc1nc(N2CCCN(c3ccc(-c4cc(F)ccc4-c4cncs4)cc3)C2=O)sc1S(N)(=O)=O [Compound 231] | 100 to 1000 nM |  |
| Cc1nc(N2CCCN(c3ccc(-c4cc(C(F)(F)F)cc5c4c(C#N)cn5C)cc3)C2=O)sc1S(N)(=O)=O [Compound 290] | 1000 to 5000 nM |  |
| Cc1nc(N2CCCN(c3ccc(-c4ccc(F)cc4)cc3)C2=O)sc1S(N)(=O)=O [Compound 189] | 100 to 1000 nM |  |
| Cc1nc(N2CCCN(c3ccc(-c4cncc5c4cnn5C)cc3)C2=O)sc1S(N)(=O)=O [Compound 288] | 100 to 1000 nM |  |
| Cc1nc(N2CC3(CCCC3)CN(c3ccc(-c4cc(F)ccc4F)cc3)C2=O)sc1S(N)(=O)=O [Compound 336] | < 100 nM |  |
| COCCCCCCCCCCNS(=O)(=O)c1sc(N2CCCN(c3ccc(-c4cc(F)ccc4F)cc3)C2=O)nc1C [Compound 421] | < 100 nM |  |
| COCCCNS(=O)(=O)c1sc(N2CCCN(c3ccc(-c4cc(F)ccc4F)cc3)C2=O)nc1C [Compound 416] | < 100 nM |  |
| Cc1nc(N2CCCN(c3ccc(-c4cc(F)cc5c(C)c(C#N)sc45)cc3)C2=O)sc1S(N)(=O)=O [Compound 280] | 1000 to 5000 nM |  |
| CO[C@H]1CN(c2ccc(-c3cc(F)ccc3F)cc2)C(=O)N(c2nc(C)c(S(N)(=O)=O)s2)C1 (single isomer, unassigned) [Compound 359] | 1000 to 5000 nM |  |
| Cc1nc(N2CCCN(c3ccc(-c4cc(F)cc(F)c4O)cc3)C2=O)sc1S(N)(=O)=O [Compound 215] | < 100 nM |  |
| Cc1nc(N2C(=O)N(c3ccc(-c4cc(F)ccc4F)cc3)CC[C@@H]2C)sc1S(N)(=O)=O (single isomer, unassigned) [Compound 109] | < 100 nM |  |
| Cc1cccc(-c2ccc(N3CCCN(c4nc(C)c(S(N)(=O)=O)s4)C3=O)cc2)n1 [Compound 184] | < 100 nM |  |
| Cc1nc(N2CC(F)CN(c3ccc(-c4cc(F)ccc4F)cc3)C2=O)sc1S(=O)(=O)NCCO (stereo not drawn) [Compound 413] | < 100 nM |  |
| Cc1nc2cc(F)cc(-c3ccc(N4CCCN(c5nc(C)c(S(N)(=O)=O)s5)C4=O)cc3)c2s1 [Compound 256] | < 100 nM |  |
| Cc1nc(N2CCCN(c3ccc(-c4cc(F)ccc4F)cc3)C2=O)sc1S(=O)(=O)Nc1ccc2cc[nH]c2c1 [Compound 407] | 100 to 1000 nM |  |
| Cc1nc(N2C[C@@H](C)CN(c3ccc(-c4ccccc4)cc3)C2=O)sc1S(N)(=O)=O (single isomer, unassigned) [Compound 328] | < 100 nM |  |
| CN=[S@](C)(=O)c1sc(N2CCCN(c3ccc(-c4ccccc4F)cc3)C2=O)nc1C (single isomer, unassigned) [Compound 146] | 100 to 1000 nM |  |
| Cc1nc(N2CCCN(c3ccc(-c4cccc5nc(N)sc45)cc3)C2=O)sc1S(N)(=O)=O [Compound 69] | < 100 nM |  |
| Cc1nc(N2CCCN(c3ccc(-c4ccccc4C(F)(F)F)cc3)C2=O)sc1S(N)(=O)=O [Compound 196] | < 100 nM |  |
| COCCNS(=O)(=O)c1sc(N2CCCN(c3ccc(-c4cc(F)ccc4F)cc3)C2=O)nc1C [Compound 387] | < 100 nM |  |
| Cc1nc(N2CCCN(c3ccc(-c4ncccc4F)cc3)C2=O)sc1S(=O)(=O)NC1CC1 [Compound 409] | < 100 nM |  |
